In US8592594B2, “Tetrahydro-quinoline derivatives” (Hoffmann-La Roche Inc., priority 2010, dated 2013) one finds EC50 data, which are given here for 30 molecules.

For orientation: EC50 means the concentration at which the effect is half-maximal.

For this assay, the system named is recombinant AMPK proteins (α1β1γ1, α2β1γ1, α1(1-335), α1(1-394) or α2(1-394)). As to the kind of experiment: Scintillation Proximity Assay (SPA), AMPK activation. Format: biochemical, human. Conditions: effective concentration of activator for 50% of maximal enzyme activity; 50 nM AMPK, 2 μM ATP, 2 μM biotin-SAMS, 30° C., 2 hours. The procedure: Recombinant human AMPK α1β1γ1, α2β1γ1 or AMPK α subunit truncations α1(1-335), α1(1-394) and α2(1-394) were constructed, expressed and purified as described previously (Pang, T., Zhang, Z. S., Gu, M., Qiu, B. Y., Yu, L. F., Cao, P. R., Shao, W., Su, M. B., Li, J. Y., Nan, F. J., and Li, J. (2008). Rat liver AMPK heterotrimer enzyme was obtained from Upstate (Billerica, Mass., U.S.A.).
Scintillation Proximity Assay
Before the Scintillation Proximity Assay (SPA) assay, 200 nM recombinant AMPK proteins (α1β1γ1, α2β1γ1, α1(1-335), α1(1-394) or α2(1-394)) were fully phosphorylated as described previously (Pang et al., 2008). SPA reactions were performed in 96-well plates at a final volume of 50 μL containing 20 mM Tris-HCl pH 7.5, 5 mM MgCl2, 1 mM DTT, 2 μM biotin-SAMS, 2 μM ATP, 0.2 μCi/well [γ-^33P]ATP, and various amount of activator. Reactions were initiated by the addition of 50 nM recombinant AMPK proteins to the reaction solutions and incubated at 30° C. for 2 hours. After that, reactions were terminated by the addition of 40 μL stop solution containing 80 μg streptavidin-coated SPA beads per well, 50 mM ED TA, 0.1% Triton X-100 in PBS, pH 7.5 and incubated for 1 hour. Finally, a 160 μL suspension solution containing 2.4 M CsCl, 50 mM EDTA, and 0.1% Triton X-100 in PBS (pH 7.5) was added to the reaction solution to suspend SPA beads completely. SPA signals were determined with a Wallac MicroBeta plate counter (PerkinElmer) 30 min later for calculation of the amount of product formed. The amount of products formed in 2 hour was plotted against activator concentrations to determine the effective concentration of the activator (EC50) required for 50% of maximal enzyme activity.
(In general: Scintillation proximity formats need no separation of bound from free tracer.)
With `Cc1ccc(F)cc1C1CC2(CC2)c2cc(C(=O)O)ccc2N1` (stereo not drawn) [Example 1, 2-(5-Fluoro-2-methyl-phenyl)-spiro(cyclopropane-1,4′-1′,2′,3′,4′-tetrahydroquinoline)-6-carboxylic acid], the EC50 is 2.07 µM.

For `O=C(O)c1ccc2c(c1)C1(CC1)CC(c1cc(Br)ccc1F)N2` (stereo not drawn) [Example 2, 2-(5-Bromo-2-fluoro-phenyl)-spiro(cyclopropane-1,4′-1′,2′,3′,4′-tetrahydroquinoline)-6-carboxylic acid], the EC50 was determined as 3.21 µM.

Regarding `O=C(O)c1ccc2c(c1)C1(CC1)CC(c1cc(Cl)ccc1Cl)N2` (stereo not drawn) [Example 3, 2-(2,5-Dichloro-phenyl)-spiro(cyclopropane-1,4′-1′,2′,3′,4′-tetrahydroquinoline)-6-carboxylic acid], the EC50 turned out to be 6.12 µM.

`O=C(O)c1ccc2c(c1)C1(CC1)CC(c1cc(Cl)cc(Cl)c1)N2` (stereo not drawn) [Example 4, 2-(3,5-Dichloro-phenyl)-spiro(cyclopropane-1,4′-1′,2′,3′,4′-tetrahydroquinoline)-6-carboxylic acid]: the EC50 was determined as 13.2 µM.

Take `O=C(O)c1ccc2c(c1)C1(CC1)CC(c1cc(Cl)ccc1F)N2` (stereo not drawn) [Example 5, 2-(5-Chloro-2-fluoro-phenyl)-spiro(cyclopropane-1,4′-1′,2′,3′,4′-tetrahydroquinoline)-6-carboxylic acid]: the EC50 was 1.24 µM.

For `CS(=O)(=O)c1cccc(C2CC3(CC3)c3cc(C(=O)O)ccc3N2)c1` (stereo not drawn) [Example 6, 2-(3-Methanesulfonyl-phenyl)-spiro(cyclopropane-1,4′-1′,2′,3′,4′-tetrahydroquinoline)-6-carboxylic acid], the EC50 was 7.41 µM.

As for `O=C(O)c1ccc2c(c1)C1(CC1)CC(c1cc(F)ccc1Br)N2` (stereo not drawn) [Example 7, 2-(2-Bromo-5-fluoro-phenyl)-spiro(cyclopropane-1,4′-1′,2′,3′,4′-tetrahydroquinoline)-6-carboxylic acid], the EC50 is 2.29 µM.

With `O=C(O)c1ccc2c(c1)C1(CC1)CC(c1cccc(F)c1)N2` (stereo not drawn) [Example 8, 2-(3-Fluoro-phenyl)-spiro(cyclopropane-1,4′-1′,2′,3′,4′-tetrahydroquinoline)-6-carboxylic acid], the half-maximal effective concentration (EC50) stood at 4.44 µM.

For the molecule `O=C(O)c1ccc2c(c1)C1(CCCCC1)CC(c1cc(F)ccc1Br)N2` (stereo not drawn) [Example 9, 2-(2-Bromo-5-fluoro-phenyl)-spiro(cyclohexane-1,4′-1′,2′,3′,4′-tetrahydroquinoline)-6-carboxylic acid], the EC50 amounted to 1.68 µM.

With `O=C(O)c1ccc2c(c1)C1(CCCC1)CC(c1cc(F)ccc1Br)N2` (stereo not drawn) [Example 10, 2-(2-Bromo-5-fluoro-phenyl)-spiro(cyclopentane-1,4′-1′,2′,3′,4′-tetrahydroquinoline)-6-carboxylic acid], the half-maximal effective concentration (EC50) was determined as 3.48 µM.

`CS(=O)(=O)c1ccc(F)cc1C1CC2(CC2)c2cc(C(=O)O)ccc2N1` (stereo not drawn) [Example 11, 2-(5-Fluoro-2-methanesulfonyl-phenyl)-spiro(cyclopropane-1,4′-1′,2′,3′,4′-tetrahydroquinoline)-6-carboxylic acid]: the EC50 worked out at 4.96 µM.

Regarding `CS(=O)(=O)c1ccc(S(C)(=O)=O)c(C2CC3(CC3)c3cc(C(=O)O)ccc3N2)c1` (stereo not drawn) [Example 12, 2-(2,5-Dimethanesulfonyl-phenyl)-spiro(cyclopropane-1,4′-1′,2′,3′,4′-tetrahydroquinoline)-6-carboxylic acid], the EC50 came to 5.92 µM.

In the case of `CN(C)C(=O)N1c2ccc(C(=O)O)cc2C2(CC2)CC1c1cc(Cl)ccc1Cl` (stereo not drawn) [Example 13, 2-(2,5-Dichloro-phenyl)-1-dimethylcarbamoyl-spiro(cyclopropane-1,4′-1′,2′,3′,4′-tetrahydroquinoline)-6-carboxylic acid], the EC50 came out at 2.63 µM.

With `O=C(O)c1ccc2c(c1)C1(CC1)CC(c1cc(Cl)ccc1Cl)N2Cc1ccccc1` (stereo not drawn) [Example 14, 1-Benzyl-2-(2,5-dichloro-phenyl)-spiro(cyclopropane-1,4′-1′,2′,3′,4′-tetrahydroquinoline)-6-carboxylic acid], the EC50 came to 3.76 µM.

With `CC1(C)CC(c2cc(Cl)ccc2Cl)Nc2ccc(C(=O)O)cc21` (stereo not drawn) [Example 15, 2-(2,5-Dichloro-phenyl)-4,4-dimethyl-1,2,3,4-tetrahydro-quinoline-6-carboxylic acid], the EC50 was 7.6 µM.

Take `CC1(C)CC(C(C)(C)c2ccccc2)Nc2ccc(C(=O)O)cc21` (stereo not drawn) [Example 16, 4,4-Dimethyl-2-(1-methyl-1-phenyl-ethyl)-1,2,3,4-tetrahydro-quinoline-6-carboxylic acid]: the concentration for a half-maximal effect (EC50) came to 8.61 µM.

On to `CC1(C)CC(c2cc(Cl)ccc2F)Nc2cc(Cl)c(C(=O)O)cc21` (stereo not drawn) [Example 17, 7-Chloro-2-(5-chloro-2-fluoro-phenyl)-4,4-dimethyl-1,2,3,4-tetrahydro-quinoline-6-carboxylic acid], for which the EC50 was 4.54 µM.

Regarding `CC1(C)CC(c2cc(Cl)ccc2F)Nc2ccc(CC(=O)O)cc21` (stereo not drawn) [Example 18, [2-(5-Chloro-2-fluoro-phenyl)-4,4-dimethyl-1,2,3,4-tetrahydro-quinolin-6-yl]-acetic acid], the EC50 came to 4.58 µM.

Take `C=CC1(C)CC(c2ccc(F)c(Cl)c2)Nc2ccc(C(=O)O)cc21` (stereo not drawn) [Example 19, 2-(3-Chloro-4-fluoro-phenyl)-4-methyl-4-vinyl-1,2,3,4-tetrahydro-quinoline-6-carboxylic acid]: the EC50 amounted to 2.13 µM.

For the molecule `CC1(c2ccccc2)CC(c2ccc(F)c(Cl)c2)Nc2ccc(C(=O)O)cc21` (stereo not drawn) [Example 20, 2-(3-Chloro-4-fluoro-phenyl)-4-methyl-4-phenyl-1,2,3,4-tetrahydro-quinoline-6-carboxylic acid], the concentration giving a half-maximal response (EC50) came out at 3.31 µM.

On to `CC1(C)CC(c2cccc(N3CCOCC3)c2)Nc2ccc(C(=O)O)cc21` (stereo not drawn) [Example 22, 4,4-Dimethyl-2-(3-morpholin-4-yl-phenyl)-1,2,3,4-tetrahydro-quinoline-6-carboxylic acid], for which the EC50 stood at 5.35 µM.

As for `CC(C)N1CCN(c2cccc(C3CC(C)(C)c4cc(C(=O)O)ccc4N3)c2)CC1` (stereo not drawn) [Example 23, 2-[3-(4-Isopropyl-piperazin-1-yl)-phenyl]-4,4-dimethyl-1,2,3,4-tetrahydro-quinoline-6-carboxylic acid], the EC50 worked out at 7.02 µM.

On to `C=CC1(C)CC(c2ccc(F)c(Cl)c2)Nc2ccc(C(=O)O)nc21` (stereo not drawn) [Example 25, 6-(3-Chloro-4-fluoro-phenyl)-8-methyl-8-vinyl-5,6,7,8-tetrahydro-[1,5]naphthyridine-2-carboxylic acid], for which the concentration for a half-maximal effect (EC50) was 4.83 µM.

Regarding `CCC1(C)CC(c2ccc(F)c(Cl)c2)Nc2ccc(C(=O)O)nc21` (stereo not drawn) [Example 26, 6-(3-Chloro-4-fluoro-phenyl)-8-ethyl-8-methyl-5,6,7,8-tetrahydro-[1,5]naphthyridine-2-carboxylic acid], the EC50 was 2.1 µM.

For `CCC1(C)CC(c2ccc(F)c(Cl)c2)N(CCC(C)C)c2ccc(C(=O)O)nc21` (stereo not drawn) [Example 27, 6-(3-Chloro-4-fluoro-phenyl)-8-ethyl-8-methyl-5-(3-methyl-butyl)-5,6,7,8-tetrahydro-[1,5]naphthyridine-2-carboxylic acid], the EC50 is 1.49 µM.

With `Cc1ccc(F)cc1C1CC2(CC2)c2cc(C(=O)NC3CCC3)ccc2N1` (stereo not drawn) [Example 28, 2-(5-Fluoro-2-methyl-phenyl)-spiro(cyclopropane-1,4′-1′,2′,3′,4′-tetrahydroquinoline)-6-carboxylic acid cyclobutylamide], the EC50 came out at 11.4 µM.

For `Cc1ccc(F)cc1C1CC2(CC2)c2cc(C(=O)N3CCOCC3)ccc2N1` (stereo not drawn) [Example 30, [2-(5-Fluoro-2-methyl-phenyl)-spiro(cyclopropane-1,4′-1′,2′,3′,4′-tetrahydroquinolin)-6-yl]-morpholin-4-yl-methanone], the EC50 is 2.47 µM.

With `Cc1ccc(F)cc1C1CC2(CC2)c2cc(C(=O)N3CCN(C)CC3)ccc2N1` (stereo not drawn) [Example 31, [2-(5-Fluoro-2-methyl-phenyl)-spiro(cyclopropane-1,4′-1′,2′,3′,4′-tetrahydroquinolin)-6-yl]-(4-methyl-piperazin-1-yl)-methanone], the EC50 is 2.58 µM.

Turning to `O=C(c1ccc2c(c1)C1(CC1)CC(c1cc(F)ccc1Br)N2)N1CCOCC1` (stereo not drawn) [Example 32, [2-(2-Bromo-5-fluoro-phenyl)-spiro(cyclopropane-1,4′-1′,2′,3′,4′-tetrahydroquinolin)-6-yl]-morpholin-4-yl-methanone], the EC50 was determined as 1.24 µM.

`CC(C)NC(=O)c1ccc2c(c1)C1(CC1)CC(c1cc(F)ccc1Br)N2` (stereo not drawn) [Example 33, 2-(2-Bromo-5-fluoro-phenyl)-spiro(cyclopropane-1,4′-1′,2′,3′,4′-tetrahydroquinoline)-6-carboxylic acid isopropylamide]: the EC50 was 13.6 µM.
